Data taken from ChEMBL document CHEMBL1135492, “An investigation of bone resorption and Dictyostelium discoideum growth inhibition by bisphosphonate drugs” (J Med Chem, 2002).

Key:
Rattus norvegicus = organism: Rattus norvegicus; test: Bone resorption activity in rats.; format: functional
Dictyostelium discoideum = test: Ability to inhibit growth of Dictostelium discoideum.; format: functional, organism-based

Structure (SMILES) | LED (Rattus norvegicus) [mgP kg-1] | IC50 (Dictyostelium discoideum) [µM]
O=P(O)(O)C(NC1CCCCCC1)P(=O)(O)O [INCADRONIC ACID] | 0.001 | –
C[n+]1ccc(CC(O)(P(=O)(O)O)P(=O)(O)O)cc1 | 0.01 | –
CCCCCN(C)CCC(O)(P(=O)(O)O)P(=O)(O)O [IBANDRONIC ACID] | 0.0001 | –
O=P(O)(O)C(O)(C1CCc2ccncc21)P(=O)(O)O (stereo unspecified) | 0.01 | 36
O=P(O)(O)C(O)(CCc1cccnc1)P(=O)(O)O | 1 | 310
O=P(O)(O)C(O)(Cc1ccncc1)P(=O)(O)O | 0.01 | –
C[n+]1cccc2c1CC(P(=O)(O)O)(P(=O)(O)O)C2 | 0.1 | –
CCN(c1ccncc1)C(P(=O)(O)O)P(=O)(O)O | 0.1 | –
O.O=P(O)(O)C(O)(Cn1ccnc1)P(=O)(O)O [ZOLEDRONIC ACID] | 0.0001 | –
Cc1ccc(NC(P(C)(=O)O)P(=O)(O)O)nc1 (stereo unspecified) | 1 | –
O=P(O)(O)C1(P(=O)(O)O)Cc2cccnc2C1 | – | 1200
Cc1cccnc1NCC(P(=O)(O)O)P(=O)(O)O | 1 | 40
O=P(O)(O)C(O)(CCc1ccncc1)P(=O)(O)O | 1 | –
CCCCCCC[n+]1ccc(CC(O)(P(=O)(O)O)P(=O)(O)O)cc1 | 0.01 | –
C[n+]1cccc(CC(O)(P(=O)(O)O)P(=O)(O)O)c1 | 0.0001 | –
O=P(O)(O)C(O)(Cc1cccnc1)P(=O)(O)O [RISEDRONIC ACID] | 0.0003 | 13
O=P(O)(O)C(Nc1ccccn1)P(=O)(O)O | 0.01 | 12
CCCCP(=O)(O)C(Nc1ncccc1C)P(=O)(O)O (stereo unspecified) | 1 | –
Cc1cccnc1NC(P(C)(=O)O)P(=O)(O)O (stereo unspecified) | 1 | –

Structure (SMILES) | LED (Rattus norvegicus) [mgP kg-1] | IC50 (Dictyostelium discoideum) [µM]
O=P(O)(O)C(CCc1ccccn1)P(=O)(O)O | – | 150
O=P(O)(O)C(CNc1ccccn1)P(=O)(O)O | 0.01 | 15
NCCC(O)(P(=O)(O)O)P(=O)(O)O [PAMIDRONIC ACID] | 0.03 | 167
Cc1ccnc(NC(P(=O)(O)O)P(=O)(O)O)c1 | 0.001 | –
CC(O)(P(=O)(O)O)P(=O)(O)O [ETIDRONIC ACID] | 1 | 380
Cc1cccc(NC(P(=O)(O)O)P(=O)(O)O)n1 | 0.001 | –
O=P(O)(O)C(O)(Cc1ccccn1)P(=O)(O)O | 0.001 | –
C[n+]1ccccc1CC(O)(P(=O)(O)O)P(=O)(O)O | 0.01 | –
O=P(O)(O)C(Cc1cccnc1)P(=O)(O)O | 0.01 | –
NCCCC(O)(P(=O)(O)O)P(=O)(O)O [ALENDRONIC ACID] | 0.001 | 32
O=P(O)(O)C(C1CCc2cccnc21)P(=O)(O)O (stereo unspecified) | 0.1 | 38
O=P(O)(O)C(Nc1ncccn1)P(=O)(O)O | 0.001 | –
O=P(O)(O)C(Cc1ccccn1)P(=O)(O)O [PIRIDRONIC ACID] | 0.01 | 20
NCCCC(P(=O)(O)O)P(=O)(O)O | – | 44
O=P(O)(O)C(Nc1ccc(Cl)cn1)P(=O)(O)O | 0.01 | –
O=P(O)(O)C1(P(=O)(O)O)CC2CCCNC2C1 (stereo unspecified) | 0.01 | 13
Cc1ccc(NC(P(=O)(O)O)P(=O)(O)O)nc1 | 0.001 | –
O=P(O)(O)C(O)(Cc1cnc2ccccn12)P(=O)(O)O [MINODRONIC ACID] | 0.0001 | –
Cc1cccnc1NC(P(=O)(O)O)P(=O)(O)O | 0.001 | 9
